# According to patent US6414014B1 (Bristol-Myers Squibb Company, priority 1992, dated 2002):
# How the values were obtained:
# [1] = Peripheral neuropathy symptoms (PNS) in the randomized taxol study; type: in vivo, patients
# Method: A nurse remained with each patient for the first hour of each infusion. Temperature, pulse, blood pressure, and respiration were taken preinfusion, every 15 minutes for the first hour, every thirty minutes for the next 2 hours, hourly for the next 4 hours, and every other hour until the end of the infusion (for patients receiving the 24-hour infusion). Other observations were also documents, such as rash/redness of the skin, hives, vomiting, nausea, and any other symptoms including neuropathy and skin rashes.
# 80 of 157 patients (51%) experienced some sign of symptom of peripheral neurotoxicity. The incidents in the high dose arms was 66% (49/74), while the incidents in the low dose arms was 37% (31/83). The incidents of peripheral neuropathy in the long-term (24-hour) infusion was 48% (43/89), while the incidents of peripheral neuropathy in the short-term infusion arms was […] (37/68).
# [2] = system: drug-refractory ovarian cancer; conditions: in vivo; cited from earlier work
# [3] = 6-hour IV infusion every 21 days without premedication; cited from earlier work
# [4] = arm 135/3 (mg/m^2/infusion hours), n = 39
# [5] = arm 135/24 (mg/m^2/infusion hours), n = 44
# [6] = arm 175/3 (mg/m^2/infusion hours), n = 29
# [7] = arm 175/4 (mg/m^2/infusion hours), n = 45
compound,measurement,setting,value
CC(=O)O[C@H]1C(=O)[C@@]2(C)[C@H]([C@H](OC(=O)c3ccccc3)[C@]3(O)C[C@H](OC(=O)[C@H](O)[C@@H](NC(=O)c4ccccc4)c4ccccc4)C(C)=C1C3(C)C)[C@]1(OC(C)=O)CO[C@@H]1C[C@@H]2O [taxol],patients asymptomatic prior to taxol who developed some peripheral neuropathy symptoms,[1]; 44 of 118 patients,37%
same,patients with some sign or symptom of peripheral neurotoxicity,"[1]; 80 of 157, all arms",51%
same,First Occurence/Worsening of PNS By Cumulative Dose of Taxol: 201-400 mg/m^2,"[1]; TOTAL, all four arms, n = 157",22 n (%)
same,First Occurence/Worsening of PNS By Cumulative Dose of Taxol: 401-600 mg/m^2,"[1]; TOTAL, all four arms, n = 157",4 n (%)
same,First Occurence/Worsening of PNS By Cumulative Dose of Taxol: >600 mg/m^2,"[1]; TOTAL, all four arms, n = 157",5 n (%)
same,First Occurence/Worsening of PNS By Cumulative Dose of Taxol: ≦200 mg/m^2,"[1]; TOTAL, all four arms, n = 157",23 n (%)
same,Number of Patients Who Developed or Worsened PNS,"[1]; TOTAL, all four arms, n = 157",54 (34) n (%)
same,First Occurence/Worsening of PNS By Courses: Course 1,[1]; [4],4 n (%)
same,First Occurence/Worsening of PNS By Courses: Course 3,[1]; [4],1 n (%)
same,First Occurence/Worsening of PNS By Courses: Course 4 and more,[1]; [4],3 n (%)
same,First Occurence/Worsening of PNS By Cumulative Dose of Taxol: 201-400 mg/m^2,[1]; [4],1 n (%)
same,First Occurence/Worsening of PNS By Cumulative Dose of Taxol: 401-600 mg/m^2,[1]; [4],2 n (%)
same,First Occurence/Worsening of PNS By Cumulative Dose of Taxol: >600 mg/m^2,[1]; [4],2 n (%)
same,First Occurence/Worsening of PNS By Cumulative Dose of Taxol: ≦200 mg/m^2,[1]; [4],4 n (%)
same,Number of Patients Who Developed or Worsened PNS,[1]; [4],8 (21) n (%)
same,First Occurence/Worsening of PNS By Courses: Course 1,[1]; [5],3 n (%)
same,First Occurence/Worsening of PNS By Courses: Course 2,[1]; [5],2 n (%)
same,First Occurence/Worsening of PNS By Courses: Course 3,[1]; [5],1 n (%)
same,First Occurence/Worsening of PNS By Courses: Course 4 and more,[1]; [5],1 n (%)
same,First Occurence/Worsening of PNS By Cumulative Dose of Taxol: 201-400 mg/m^2,[1]; [5],3 n (%)
same,First Occurence/Worsening of PNS By Cumulative Dose of Taxol: 401-600 mg/m^2,[1]; [5],1 n (%)
same,First Occurence/Worsening of PNS By Cumulative Dose of Taxol: >600 mg/m^2,[1]; [5],1 n (%)
same,First Occurence/Worsening of PNS By Cumulative Dose of Taxol: ≦200 mg/m^2,[1]; [5],3 n (%)
same,Number of Patients Who Developed or Worsened PNS,[1]; [5],7 (16) n (%)
same,First Occurence/Worsening of PNS By Courses: Course 1,[1]; [6],7 n (%)
same,First Occurence/Worsening of PNS By Courses: Course 2,[1]; [6],9 n (%)
same,First Occurence/Worsening of PNS By Courses: Course 3,[1]; [6],1 n (%)
same,First Occurence/Worsening of PNS By Courses: Course 4 and more,[1]; [6],1 n (%)
same,First Occurence/Worsening of PNS By Cumulative Dose of Taxol: 201-400 mg/m^2,[1]; [6],9 n (%)
same,First Occurence/Worsening of PNS By Cumulative Dose of Taxol: 401-600 mg/m^2,[1]; [6],1 n (%)
same,First Occurence/Worsening of PNS By Cumulative Dose of Taxol: >600 mg/m^2,[1]; [6],1 n (%)
same,First Occurence/Worsening of PNS By Cumulative Dose of Taxol: ≦200 mg/m^2,[1]; [6],7 n (%)
same,Number of Patients Who Developed or Worsened PNS,[1]; [6],18 (62) n (%)
same,First Occurence/Worsening of PNS By Courses: Course 1,[1]; [7],9 n (%)
same,First Occurence/Worsening of PNS By Courses: Course 2,[1]; [7],8 n (%)
same,First Occurence/Worsening of PNS By Courses: Course 3,[1]; [7],1 n (%)
same,First Occurence/Worsening of PNS By Courses: Course 4 and more,[1]; [7],2 n (%)
same,First Occurence/Worsening of PNS By Cumulative Dose of Taxol: 201-400 mg/m^2,[1]; [7],8 n (%)
same,First Occurence/Worsening of PNS By Cumulative Dose of Taxol: 401-600 mg/m^2,[1]; [7],2 n (%)
same,First Occurence/Worsening of PNS By Cumulative Dose of Taxol: >600 mg/m^2,[1]; [7],1 n (%)
same,First Occurence/Worsening of PNS By Cumulative Dose of Taxol: ≦200 mg/m^2,[1]; [7],9 n (%)
same,Number of Patients Who Developed or Worsened PNS,[1]; [7],20 (44) n (%)
same,incidence of peripheral neurotoxicity,"[1]; high dose arms, 49/74",66%
same,"peripheral neuropathy symptoms (PNS), about 135 mg/m^2 rather than about 175 mg/m^2",[1]; in vivo,reduced
same,incidence of peripheral neuropathy,"[1]; long-term (24-hour) infusion, 43/89",48%
same,incidence of peripheral neurotoxicity,"[1]; low dose arms, 31/83",37%
same,incidence of peripheral neuropathy,"[1]; short-term infusion arms, 37/68",50%
same,activity against drug-refractory ovarian cancer,[2],active agent
same,maximum tolerated dose,[3],275 mg/m^2
